Like-named read-outs stand apart in the source and are kept apart here.
Legend:
[1] = SFN metabolites in plasma by LC-MS/MS; conditions: BSE group n=42; for Plasma level of individual SFN metabolite, postintervention, Mean (SE): after 200 μmol SFN daily, 4–8 wk; for Plasma level of individual SFN metabolite, preintervention, Mean (SE): baseline before supplementation
[2] = test system: AMACR expression in colon cancer Caco-2 cells; conditions: SFN treatment; cited from earlier work
[3] = test system: AMACR mRNA in LNCaP cells; conditions: 6 and 24 h after a single SFN treatment; cited from earlier work
[4] = in vivo

Row | SMILES | Plasma level of individual SFN metabolite, change (post minus pre), Mean (SE) [1] | Plasma level of individual SFN metabolite, postintervention, Mean (SE) [1] | Plasma level of individual SFN metabolite, preintervention, Mean (SE) [1] | AMACR expression in colon cancer Caco-2 cells [2] | AMACR mRNA levels in LNCaP cells [3] | Plasma level of individual SFN metabolite, change (post minus pre), Mean (SE) [4] | Plasma level of individual SFN metabolite, preintervention, Mean (SE) [4]
1 | C[S+]([O-])CCCCN=C=S (stereo not shown) [SFN, sulforaphane] | 0.0001 (0.0001) μM | 0.0001 (0.0001) μM | 0.00 (0.00) μM | significantly decrease AMACR expression | significantly downregulated | – | –
2 | C[S+]([O-])CCCCNC(=S)SCC(N)C(=O)NCC(=O)O (stereo not shown) [SFN-CG, SFN-cysteinylglycine] | – | – | – | – | – | 0.04 (0.01) μM | 0.00 (0.00) μM
3 | C[S+]([O-])CCCCNC(=S)SCC(N)C(=O)O (stereo not shown) [SFN-Cys, SFN-cysteine] | 0.02 (0.01) μM | 0.02 (0.01) μM | 0.00 (0.00) μM | – | – | – | –
4 | C[S+]([O-])CCCCNC(=S)SC[C@H](NC(=O)CC[C@H](N)C(=O)O)C(=O)NCC(=O)O (stereo partly shown) [SFN-GSH, SFN-glutathione] | 0.03 (0.01) μM | 0.03 (0.01) μM | 0.00 (0.00) μM | – | – | – | –
5 | CC(=O)N[C@@H](CSC(=S)NCCCC[S+](C)[O-])C(=O)O (stereo partly drawn) [SFN-NAC, SFN N-acetyl-L-cysteine] | 0.03 (0.01) μM | 0.03 (0.01) μM | 0.00 (0.00) μM | – | – | – | –

— article PMC8244813 (Nutrition and cancer, 2019)
